Experiments:
Aspergillus fumigatus = assay: Antifungal activity against Aspergillus fumigatus ATCC 204305 assessed as inhibition of fungal growth by broth microdilution method; format: functional
[1] = Inhibition of quorum sensing system in Chromobacterium violaceum wild type 85 assessed as reduction in pigment production incubated for 24 to 48 hrs; settings: time 24-48 hrs
Escherichia coli [2] = assay: Antibacterial activity against Escherichia coli ATCC 25922 assessed as inhibition of bacterial growth by broth microdilution method; format: functional
Staphylococcus aureus [3] = assay: Antibacterial activity against methicillin and ofloxacin-resistant Staphylococcus aureus 272123 assessed as inhibition of bacterial growth by broth microdilution method; format: functional
Enterococcus faecalis [4] = assay: Antibacterial activity against Enterococcus faecalis ATCC 29212 assessed as inhibition of bacterial growth by broth microdilution method; format: functional
[5] = Inhibition of quorum sensing system in Chromobacterium violaceum CV026 assessed as reduction in pigment production co-cultured with Sphingomonas paucimobilis Ezf 10-17 for 24 to 48 hrs; settings: time 24-48 hrs
Pseudomonas aeruginosa = assay: Antibacterial activity against Pseudomonas aeruginosa ATCC 27853 assessed as inhibition of bacterial growth by broth microdilution method; format: functional
Trichophyton rubrum = assay: Antifungal activity against Trichophyton rubrum FF5 assessed as inhibition of fungal growth by broth microdilution method; format: functional
[6] = Inhibition of Multidrug resistance efflux pump in Staphylococcus aureus 272123 assessed as relative fluorescence index using ethidium bromide as substrate at 50 uM by fluorescence based analysis
Staphylococcus aureus [7] = assay: Antibacterial activity against Staphylococcus aureus ATCC 25923 assessed as inhibition of bacterial growth by broth microdilution method; format: functional
Staphylococcus aureus [8] = assay: Inhibition of biofilm formation in Staphylococcus aureus 272123 at 100 uM incubated for 48 hrs by crystal violet staining based analysis; format: functional
[9] = system: Salmonella enterica subsp. enterica serovar Typhimurium; assay: Inhibition of Multidrug resistance efflux pump in Salmonella enterica serovar typhimurium SL1344 (SE03) assessed as relative fluorescence index using ethidium bromide as substrate at 50 uM by fluorescence based analysis
Serratia marcescens = assay: Inhibition of quorum sensing system in Serratia marcescens AS-1 assessed as reduction in pigment production incubated for 24 to 48 hrs; settings: time 24-48 hrs
Salmonella typhimurium = assay: Antibacterial activity against Salmonella enterica serovar typhimurium SL1344 (SE03) assessed as inhibition of bacterial growth by broth microdilution method; format: functional, Salmonella enterica subsp. enterica serovar Typhimurium
Escherichia coli [10] = assay: Antimicrobial adjuvant activity against ESBL-producing Escherichia coli SA/2 assessed as potentiation of cefotaxime-induced antibacterial activity by measuring fold reduction in cefotaxime MIC at 64 ug/ml by broth microdilution method; format: functional; settings: dose 64 µg/ml
Candida albicans = assay: Antifungal activity against Candidia albicans ATCC 10231 assessed as inhibition of fungal growth by broth microdilution method; format: functional
Staphylococcus aureus [11] = assay: Inhibition of biofilm formation in Staphylococcus aureus ATCC 25923 at 100 uM incubated for 48 hrs by crystal violet staining based analysis; format: functional
Enterococcus faecalis [12] = assay: Antimicrobial adjuvant activity against Enterococcus faecalis B3/101 assessed as potentiation of vancomycin-induced antibacterial activity by measuring fold reduction in vancomycin MIC at 64 ug/ml by broth microdilution method; format: functional; settings: dose 64 µg/ml

O=C1/C(=C/c2ccc(Br)cc2)COC/C1=C\c1ccc(Br)cc1
MIC (Aspergillus fumigatus): > 128 µg/mL | Activity [1]: 0 mm | MIC (Escherichia coli [2]): > 64 µg/mL | MIC (Staphylococcus aureus [3]): > 64 µg/mL | MIC (Enterococcus faecalis [4]): > 64 µg/mL | Activity [5]: 0 mm | MIC (Pseudomonas aeruginosa): > 64 µg/mL | MIC (Trichophyton rubrum): > 128 µg/mL | RFU [6]: 0.53 | MIC (Staphylococcus aureus [7]): > 64 µg/mL | inhibition at 100 µM (Staphylococcus aureus [8]): 51.2% | RFU [9]: 0.06 | Activity (Serratia marcescens): 0 mm | MIC (Salmonella typhimurium): > 64 µg/mL | fold change (FC) (Escherichia coli [10]): 8 | MIC (Candida albicans): > 128 µg/mL | inhibition at 100 µM (Staphylococcus aureus [11]): 0%

COc1cc(/C=C2\COC/C(=C\c3cc(OC)c(OC)c(OC)c3)C2=O)cc(OC)c1OC
MIC (Aspergillus fumigatus): > 128 µg/mL | MIC (Escherichia coli [2]): > 64 µg/mL | MIC (Staphylococcus aureus [3]): > 64 µg/mL | MIC (Enterococcus faecalis [4]): > 64 µg/mL | MIC (Pseudomonas aeruginosa): > 64 µg/mL | MIC (Trichophyton rubrum): > 128 µg/mL | RFU [6]: 0.02 | MIC (Staphylococcus aureus [7]): > 64 µg/mL | RFU [9]: -0.05 | MIC (Salmonella typhimurium): > 64 µg/mL | fold change (FC) (Escherichia coli [10]): 2 | MIC (Candida albicans): > 128 µg/mL

COc1ccccc1/C=C1\Cc2ccccc2C1=O
MIC (Aspergillus fumigatus): > 128 µg/mL | MIC (Escherichia coli [2]): > 64 µg/mL | MIC (Staphylococcus aureus [3]): > 64 µg/mL | MIC (Enterococcus faecalis [4]): > 64 µg/mL | fold change (FC) (Enterococcus faecalis [12]): 2 | MIC (Pseudomonas aeruginosa): > 64 µg/mL | MIC (Trichophyton rubrum): > 128 µg/mL | RFU [6]: 0.05 | MIC (Staphylococcus aureus [7]): > 64 µg/mL | RFU [9]: 0.25 | MIC (Salmonella typhimurium): > 64 µg/mL | MIC (Candida albicans): > 128 µg/mL

COc1cc(OC)c(OC)cc1/C=C1\Cc2ccccc2C1=O
MIC (Aspergillus fumigatus): > 128 µg/mL | MIC (Escherichia coli [2]): > 64 µg/mL | MIC (Staphylococcus aureus [3]): > 64 µg/mL | MIC (Enterococcus faecalis [4]): > 64 µg/mL | fold change (FC) (Enterococcus faecalis [12]): 2 | MIC (Pseudomonas aeruginosa): > 64 µg/mL | MIC (Trichophyton rubrum): > 128 µg/mL | RFU [6]: -0.34 | MIC (Staphylococcus aureus [7]): > 64 µg/mL | RFU [9]: 0.11 | MIC (Salmonella typhimurium): > 64 µg/mL | fold change (FC) (Escherichia coli [10]): 2 | MIC (Candida albicans): > 128 µg/mL

O=C1/C(=C/c2ccccc2Br)COC/C1=C\c1ccccc1Br
MIC (Aspergillus fumigatus): > 128 µg/mL | MIC (Escherichia coli [2]): > 64 µg/mL | MIC (Staphylococcus aureus [3]): > 64 µg/mL | MIC (Enterococcus faecalis [4]): > 64 µg/mL | fold change (FC) (Enterococcus faecalis [12]): 2 | MIC (Pseudomonas aeruginosa): > 64 µg/mL | MIC (Trichophyton rubrum): > 128 µg/mL | RFU [6]: -0.05 | MIC (Staphylococcus aureus [7]): > 64 µg/mL | RFU [9]: -0.02 | MIC (Salmonella typhimurium): > 64 µg/mL | MIC (Candida albicans): > 128 µg/mL

O=C1/C(=C/c2ccccc2Cl)COC/C1=C\c1ccccc1Cl
MIC (Aspergillus fumigatus): > 128 µg/mL | MIC (Escherichia coli [2]): > 64 µg/mL | MIC (Staphylococcus aureus [3]): > 64 µg/mL | MIC (Enterococcus faecalis [4]): > 64 µg/mL | MIC (Pseudomonas aeruginosa): > 64 µg/mL | MIC (Trichophyton rubrum): > 128 µg/mL | RFU [6]: -0.16 | MIC (Staphylococcus aureus [7]): > 64 µg/mL | RFU [9]: -0.08 | MIC (Salmonella typhimurium): > 64 µg/mL | fold change (FC) (Escherichia coli [10]): 2 | MIC (Candida albicans): > 128 µg/mL

COc1ccc(/C=C2\COC/C(=C\c3ccc(OC)cc3OC)C2=O)c(OC)c1
MIC (Aspergillus fumigatus): > 128 µg/mL | MIC (Escherichia coli [2]): > 64 µg/mL | MIC (Staphylococcus aureus [3]): > 64 µg/mL | MIC (Enterococcus faecalis [4]): > 64 µg/mL | MIC (Pseudomonas aeruginosa): > 64 µg/mL | MIC (Trichophyton rubrum): > 128 µg/mL | RFU [6]: -0.19 | MIC (Staphylococcus aureus [7]): > 64 µg/mL | RFU [9]: -0.15 | MIC (Salmonella typhimurium): > 64 µg/mL | fold change (FC) (Escherichia coli [10]): 8 | MIC (Candida albicans): > 128 µg/mL

Cc1cccc(/C=C2\COC/C(=C\c3cccc(C)c3)C2=O)c1
MIC (Aspergillus fumigatus): > 128 µg/mL | MIC (Escherichia coli [2]): > 64 µg/mL | MIC (Staphylococcus aureus [3]): > 64 µg/mL | MIC (Enterococcus faecalis [4]): > 64 µg/mL | fold change (FC) (Enterococcus faecalis [12]): 2 | MIC (Pseudomonas aeruginosa): > 64 µg/mL | MIC (Trichophyton rubrum): > 128 µg/mL | RFU [6]: 0.11 | MIC (Staphylococcus aureus [7]): > 64 µg/mL | RFU [9]: -0.12 | MIC (Salmonella typhimurium): > 64 µg/mL | fold change (FC) (Escherichia coli [10]): 2 | MIC (Candida albicans): > 128 µg/mL

O=C1/C(=C/c2ccc(C(F)(F)F)cc2)COC/C1=C\c1ccc(C(F)(F)F)cc1
MIC (Aspergillus fumigatus): > 128 µg/mL | MIC (Escherichia coli [2]): > 64 µg/mL | MIC (Staphylococcus aureus [3]): > 64 µg/mL | MIC (Enterococcus faecalis [4]): > 64 µg/mL | MIC (Pseudomonas aeruginosa): > 64 µg/mL | MIC (Trichophyton rubrum): > 128 µg/mL | RFU [6]: -0.12 | MIC (Staphylococcus aureus [7]): > 64 µg/mL | RFU [9]: -0.24 | MIC (Salmonella typhimurium): > 64 µg/mL | fold change (FC) (Escherichia coli [10]): 2 | MIC (Candida albicans): > 128 µg/mL

COc1ccccc1/C=C1\COC/C(=C\c2ccccc2OC)C1=O
MIC (Aspergillus fumigatus): > 128 µg/mL | MIC (Escherichia coli [2]): > 64 µg/mL | MIC (Staphylococcus aureus [3]): > 64 µg/mL | MIC (Enterococcus faecalis [4]): > 64 µg/mL | MIC (Pseudomonas aeruginosa): > 64 µg/mL | MIC (Trichophyton rubrum): > 128 µg/mL | RFU [6]: 0.21 | MIC (Staphylococcus aureus [7]): > 64 µg/mL | RFU [9]: 0.16 | MIC (Salmonella typhimurium): > 64 µg/mL | fold change (FC) (Escherichia coli [10]): 2 | MIC (Candida albicans): > 128 µg/mL

Cc1ccc(/C=C2\COC/C(=C\c3ccc(C)cc3)C2=O)cc1
MIC (Aspergillus fumigatus): > 128 µg/mL | MIC (Escherichia coli [2]): > 64 µg/mL | MIC (Staphylococcus aureus [3]): > 64 µg/mL | MIC (Enterococcus faecalis [4]): > 64 µg/mL | fold change (FC) (Enterococcus faecalis [12]): 2 | MIC (Pseudomonas aeruginosa): > 64 µg/mL | MIC (Trichophyton rubrum): > 128 µg/mL | RFU [6]: -0.24 | MIC (Staphylococcus aureus [7]): > 64 µg/mL | RFU [9]: -0.21 | MIC (Salmonella typhimurium): > 64 µg/mL | fold change (FC) (Escherichia coli [10]): 2 | MIC (Candida albicans): > 128 µg/mL
